Values joined by “and” are separate entries in the source; they are usually repeats but may differ in a detail not shown here. Equal values may be shown once. Read-outs that look alike come from different tables or passages of the source.
How the values were obtained:
RARβ [1] = molecular target: T1, RARβ (Homo sapiens, UniProt P10826); test: GeneBLAzer RAR-beta DA assay, agonist mode; assay type: cell-based
T1 sequence (P10826 183-417 limits assumed): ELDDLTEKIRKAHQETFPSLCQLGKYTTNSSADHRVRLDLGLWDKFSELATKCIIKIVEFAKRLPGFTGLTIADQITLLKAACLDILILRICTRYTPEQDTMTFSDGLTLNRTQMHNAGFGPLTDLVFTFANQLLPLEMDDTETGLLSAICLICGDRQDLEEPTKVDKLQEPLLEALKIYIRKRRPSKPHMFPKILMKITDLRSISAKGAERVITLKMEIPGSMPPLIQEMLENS
Protocol: (§1) The potency of agonists and antagonists was measured by GeneBLAzer RAR-beta DA Assay Kit (ThermoFisher Scientific) according to the manufacturer’s recommendations.
The phenylretinamides may have the ability to modulate the expression of proteins and induce cell apoptosis via RAR-dependent and -independent pathways. […] Human retina-derived cells in culture show differences in expression of RAR receptors. […] Clonetics HRPE primary human cells specifically express only RARβ [50].

SCD1 = SCD1 protein expression in ARPE-19 cells (Western blot densitometry); assay type: cell-based, human; conditions: 10 μM
Protocol: Compounds were dissolved in dimethyl sulfoxide (DMSO) and then added to the cell culture medium. Cells designated as control received an equal amount of dimethyl sulfoxide. After 16 h, cells were incubated with 50 μM palmitic acid triply deuterated (D3) on the methyl group (Cambridge Isotope Laboratories, Tewksbury, MA) for an additional 5 h before harvesting.
Samples were resuspended in 20 μl 4X reducing NuPAGE LDS sample buffer (Invitrogen). For western blot analysis, equal amounts of total protein (50 μg) from cell extracts were subjected to SDS-polyacrylamide gel electrophoresis using 4–12% NUPAGE Bis-Tris gels and then transferred to a nitrocellulose membrane using iBlot® Dry Blotting System (Invitrogen, Carlsbad, CA). After blocking in 5% non-fat milk in Tris-buffered saline (TBS) containing 0.01% Tween 20 for 1 h, the membranes were incubated overnight at 4°C with mouse monoclonal anti-SCD1 antibody (1:200; Kamiya Biomedical Company). Peroxidase-conjugated goat anti-mouse IgG antibody was used as secondary antibody. Immunocomplexes were visualized by a chemiluminescence method using the ECL Prime western blotting Detection Kit (GE Healthcare Life Sciences). The blots were then stripped and reprobed with mouse monoclonal anti-α-tubulin antibody.
Cell lysates were analyzed by Western blotting using mouse monoclonal antibody against SCD1 (upper panel) in comparison with immunoreactivity to α-tubulin which was employed as a loading control (lower panel) and densitometry for each lane was performed and analyzed by ImageJ to provide the SCD1/α-tubulin ratio for each lane. […] Free fatty acids present in lipid extracts were analyzed by LC/MS and SCD1 activity, measured by the conversion of methyl-D3 palmitic acid to methyl-D3 palmitoleic acid, was determined. […] Lipids were extracted from two 100 mm Petri dishes and combined for mass spectrometry analysis. Data plotted as means ± standard deviation; n = 3. […] They are given here as printed results in cells, but it is uncertain whether they fall under the exclusion for gels and blots. / Panel A: the Control lane (1.00) is left out because it is not a substance.

RARβ [2] = molecular target: T1, RARβ; test: GeneBLAzer RAR-beta DA assay, antagonist mode (competition with at-RA); assay type: cell-based; conditions: for competition with all-trans-retinoic acid: at-RA 0.5–1.5 nM, tested 10^−5 to 10^−9 M
Protocol: as §1
The phenylretinamides may have the ability to modulate the expression of proteins and induce cell apoptosis via RAR-dependent and -independent pathways. […] Additionally, apoptosis of neuroblastoma cell lines was blocked by two retinoic acid receptor (RAR)-β/γ-specific antagonists, but not by a RARα-specific antagonist. […] However, in this case the specific RARα-specific antagonist AGN194301 could block fenretinde-induced apoptosis. […] Human retina-derived cells in culture show differences in expression of RAR receptors. […] Clonetics HRPE primary human cells specifically express only RARβ [50].
Fluorescence was measured at excitation (ex) 409 nm/emission (em) 460 and at ex 409nm/em 530 nm and the ratio was determined and plotted against a range of concentrations (10^−5 to 10^−9 M) of the tested compounds.

recombinant mouse BCO1 = molecular target: T2, recombinant mouse BCO1 (Mus musculus, UniProt Q9JJS6); test: In vitro inhibition of recombinant mouse BCO1 activity; assay type: biochemical
T2 construct: His-tag; made in house; host or cells: E. coli
T2 sequence (Q9JJS6 1-566): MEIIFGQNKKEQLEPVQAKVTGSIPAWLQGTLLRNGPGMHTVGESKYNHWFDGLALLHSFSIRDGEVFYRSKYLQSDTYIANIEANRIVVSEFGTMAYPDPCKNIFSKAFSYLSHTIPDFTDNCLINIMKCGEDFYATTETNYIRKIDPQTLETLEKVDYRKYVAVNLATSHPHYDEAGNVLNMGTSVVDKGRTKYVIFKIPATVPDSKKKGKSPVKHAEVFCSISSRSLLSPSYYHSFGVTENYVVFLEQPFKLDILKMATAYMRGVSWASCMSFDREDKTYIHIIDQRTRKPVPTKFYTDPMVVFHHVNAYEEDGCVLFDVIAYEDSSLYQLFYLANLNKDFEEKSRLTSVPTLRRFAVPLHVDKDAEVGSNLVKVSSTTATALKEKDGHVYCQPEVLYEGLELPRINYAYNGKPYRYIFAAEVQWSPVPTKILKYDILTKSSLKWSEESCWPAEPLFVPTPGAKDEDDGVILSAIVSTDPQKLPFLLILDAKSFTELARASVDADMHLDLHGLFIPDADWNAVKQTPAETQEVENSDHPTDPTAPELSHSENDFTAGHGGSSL
Excerpt: Recombinant His-tag mouse BCO1 was produced in E.coli and purified using Talon CellThru (Clontech Labs, Inc., Mountain View, CA) resin as described previously. β-carotene was delivered in 1% octylthioglucoside. […] All other inhibitors were delivered in ethanol. […] The final concentration of ethanol in all samples was 1%. […] Data plotted as means±standard deviation; n = 3; […] Analysis was done in C57BL/6 wt (3 animals) and Bco1^-/- mice (13 animals).

[3] = humans; cited from earlier work
RBP4 = RBP4 (Homo sapiens, UniProt P02753); set-up: method as in PMID 16303925; conditions: cited from earlier work
[4] = mice, after 4 hours of treatment; cited from earlier work
RARβ [5] = molecular target: T1, RARβ; set-up: method as in Invitrogen; conditions: RARβ agonist assay; ref Invitrogen; read-out: EC50 from Invitrogen; cited from earlier work

| Compound | EC50 (RARβ [1]) | effect on SCD1 expression (SCD1) | competition with all-trans-retinoic acid (RARβ [2]) | IC50 (recombinant mouse BCO1; 20 μM β-carotene, enzyme preincubated with inhibitor 10 min at 4°C, read-out: IC50 BCO1) | metabolite level as % of plasma levels of 4-HPR [3] | affinity for RBP4 lower than for fenretinide or retinol (RBP4) | Kd (RBP4; read-out: affinity for RBP4) | metabolite level as % of plasma levels of 4-HPR [4] | IC50 (recombinant mouse BCO1) | effect on BCO1 activity (recombinant mouse BCO1; inhibitor 0–200 μM) | EC50 (RARβ [5]) | IC50 (RARβ [2]; competition with 1 nM at-RA) |
| --- | --- | --- | --- | --- | --- | --- | --- | --- | --- | --- | --- | --- |
| COc1ccc(NC(=O)/C=C(C)/C=C/C=C(C)/C=C/C2=C(C)CCCC2(C)C)cc1 [MPR, N-[4-methoxyphenyl]retinamide] | 1000 nM and 1010 nM | do not affect | cannot compete | 5000 nM | ~ 45% | 2 fold | ~100 nM | – | – | – | – | – |
| CC1=C(/C=C/C(C)=C/C=C/C(C)=C/C(=O)Nc2ccc(O)cc2)C(C)(C)CCC1=O [3-keto-HPR, 4-oxo-N-(4-hydroxyphenyl)retinamide] | – | more efficiently inhibits SCD1 expression | – | – | – | – | – | ~ 23% | 4000 nM | – | – | – |
| O=C(O)c1ccccc1NC(=O)N1CCC(c2ccccc2C(F)(F)F)CC1 [A1120] | – | do not affect | cannot compete | – | – | – | – | – | – | does not affect BCO1 activity | – | – |
| CC1=C(/C=C/C(C)=C/C=C/C(C)=C/C(=O)Nc2ccc(O)cc2)C(C)(C)CCC1 [fenretinide, N-[4-hydroxyphenyl]retinamide] | 560 nM | inhibitory effect on SCD1 expression | – | – | – | – | – | – | – | – | 220 nM | 10000 nM |

From PMC5407626 (PLoS ONE, 2017)
